This is an account of results in patent publication US9242995B2, “Isoxazolopyridine orexin receptor antagonists” (MERCK SHARP & DOHME CORP., priority 2011, dated 2016).

The target in this experiment is human orexin-2 receptor (Homo sapiens (Human), UniProt O43614). The experiment in a line: radioligand binding assay, hOX2 Bind. To be noted: membranes prepared from CHO cells expressing the OX2 receptor; read-out: hOX2 Bind hKi. As for the experimental part: The utility of the compounds in accordance with the present invention as orexin receptor OX1R and/or OX2R antagonists may be readily determined without undue experimentation by methodology well known in the art, including the “FLIPR Ca^2+ Flux Assay” (Okumura et al., Biochem. Biophys. Res. Comm. 280:976-981, 2001). In a typical experiment the OX1 and OX2 receptor antagonistic activity of the compounds of the present invention was determined in accordance with the following experimental method. For intracellular calcium measurements, Chinese hamster ovary (CHO) cells expressing the rat orexin-1 receptor or the human orexin-2 receptor, are grown in Iscove's modified DMEM containing 2 mM L-glutamine, […], 1% hypoxanthine-thymidine supplement, 100 U/ml penicillin, 100 μg/ml streptomycin and 10% heat-inactivated fetal calf serum (FCS). The cells are seeded at 20,000 cells/well into Becton-Dickinson black 384-well clear bottom sterile plates coated with poly-D-lysine. All reagents were from GIBCO-Invitrogen Corp. The seeded plates are incubated overnight at 37° C. and 5% CO2. […] Within the Fluorescent Imaging Plate Reader (FLIPR, Molecular Devices), test compounds are added to the plate in a volume of […] for 5 min and finally 25 μl of agonist is added. Fluorescence is measured for each well at 1 second intervals for 5 minutes and the height of each fluorescence peak is compared to the height of the fluorescence peak induced by 70 pM Ala-6,12 orexin-A with buffer in place of antagonist. […] Alternatively, compound potency can be assessed by a radioligand binding assay (described in Bergman et. al. Bioorg. Med. Chem. Lett. 2008, 18, 1425-1430) in which the inhibition constant (Ki) is determined in membranes prepared from CHO cells expressing either the OX1 or OX2 receptor. The intrinsic orexin receptor antagonist activity of a compound which may be used in the present invention may be determined by these assays. […]
Sequence of human orexin-2 receptor (O43614 whole entry): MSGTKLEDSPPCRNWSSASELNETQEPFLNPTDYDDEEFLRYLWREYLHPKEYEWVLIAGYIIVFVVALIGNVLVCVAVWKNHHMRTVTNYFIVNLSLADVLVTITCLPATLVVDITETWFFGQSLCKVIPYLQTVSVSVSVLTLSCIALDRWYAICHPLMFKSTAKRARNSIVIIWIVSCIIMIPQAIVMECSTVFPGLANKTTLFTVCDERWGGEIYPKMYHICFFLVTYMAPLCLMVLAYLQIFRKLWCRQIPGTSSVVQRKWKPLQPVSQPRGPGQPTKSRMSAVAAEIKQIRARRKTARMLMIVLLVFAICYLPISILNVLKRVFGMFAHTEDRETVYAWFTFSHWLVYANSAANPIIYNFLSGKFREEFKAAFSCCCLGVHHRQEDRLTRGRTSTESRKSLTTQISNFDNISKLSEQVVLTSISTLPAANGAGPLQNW
As for `COc1ccc(CNC(=O)c2cc(-c3cncc(C)c3)nc3onc(-c4ccccc4)c23)cc1OC` [Example 1-12, N-(3,4-dimethoxybenzyl)-6-(5-methylpyridin-3-yl)-3-phenylisoxazolo[5,4-b]pyridine-4-carboxamide], the Ki was 10.8 nM.
The value for `COc1ccc(CNC(=O)c2cc(-c3cncc(Br)c3)nc3onc(-c4ccccc4)c23)nc1OC` [Example 1-8, 6-(5-bromopyridin-3-yl)-N-[(5,6-dimethoxypyridin-2-yl)methyl]-3-phenylisoxazolo[5,4-b] pyridine-4-carboxamide] was 3.8 nM; that for `COc1cc(C)c(CNC(=O)c2cc(-c3cncc(C)c3)nc3onc(-c4cccs4)c23)nc1OC` [Example 1-21, N-[(5,6-dimethoxy-3-methylpyridin-2-yl)methyl]-6-(5-methylpyridin-3-yl)-3-(thiophen-2-yl)isoxazolo[5,4-b]pyridine-4-carboxamide] was 0.7 nM.
